In patent US20140072624A1, “UNIT DOSE FORM FOR ORAL ADMINISTRATION” (THRESHOLD PHARMACEUTICALS, INC., priority 2011, published 2014):
Read-outs that look alike come from different tables or passages of the source.

Legend:
[1] = Single dose pharmacokinetics of TH-302 after a 30-min intravenous infusion in rats; format: in vivo; conditions: for Vd: read-out: Vss
[2] = Pharmacokinetics of TH-302 in rats after a single oral (PO) dose; format: in vivo, Sprague-Dawley rats
Procedure: TH-302 (1-methyl-2-nitro-1H-imidazole-5-yl) N,N′-bis(2-bromoethyl) diamidophosphate, m.w.=449) that was about 96% pure based on high performance liquid chromatography (HPLC) analysis, was used. Male Sprague-Dawley rats (n=3 per time point) were administered a single oral dose of 100 mg/kg TH-302 (see, Table 1 and FIG. 1).

[3] = Pharmacokinetics of TH-302 in rats after a single IV dose; format: in vivo, Sprague-Dawley rats; conditions: rat; for Tmax: Sprague-Dawley, plasma
[4] = Sprague-Dawley, rat, plasma, female rats, 50 mg/kg, 30-min IV infusion
[5] = Sprague-Dawley, rat, plasma, female rats, 100 mg/kg, 30-min IV infusion
[6] = Sprague-Dawley, rat, plasma, male rats, 50 mg/kg, 30-min IV infusion
[7] = Sprague-Dawley, rat, plasma, male rats, 100 mg/kg, 30-min IV infusion
[8] = Sprague-Dawley, rat, plasma, male rats, 200 mg/kg, 30-min IV infusion
[9] = male rats, 100 mg/kg, 30-min IV infusion
[10] = rat, plasma, female rats, 200 mg/kg, 30-min IV infusion
[11] = male Sprague-Dawley rats, single oral dose 100 mg/kg in normal saline
[12] = rat, PO, 100 mg/kg, composite data, n = 3 per time point

## Cn1c(COP(=O)(NCCBr)NCCBr)cnc1[N+](=O)[O-] [TH-302]
[1]; [4]
  Cmax: 14100 ng/mL
  Tmax: 31 min
  clearance: 115 mL/min/kg
  Vd: 2.81 L/kg
[1]; [5]
  Cmax: 30000 ng/mL
  Tmax: 30 min
  clearance: 103 mL/min/kg
  Vd: 2.59 L/kg
[1]; Sprague-Dawley, rat, plasma, female rats, 200 mg/kg, 30-min IV infusion
  Vd: 2.35 L/kg
[1]; [6]
  Cmax: 15600 ng/mL
  Tmax: 31 min
  clearance: 104 mL/min/kg
  Vd: 2.57 L/kg
[1]; [7]
  Tmax: 33 min
  clearance: 98.3 mL/min/kg
  Vd: 2.59 L/kg
[1]; Sprague-Dawley, rat, plasma, male rats, 100 mg/kg, 30-min IV infusion (end of infusion)
  Cmax: 30900 ng/mL
[1]; [8]
  Cmax: 62500 ng/mL
  Tmax: 33 min
  clearance: 89.7 mL/min/kg
  Vd: 2.51 L/kg
[1]; female, Sprague-Dawley, rat, plasma, iv, 50 mg/kg, female rats, 50 mg/kg, 30-min IV infusion, read-out: AUC
  AUC: 7330 ng·h/mL
[1]; female, Sprague-Dawley, rat, plasma, iv, 50 mg/kg, female rats, 50 mg/kg, 30-min IV infusion, read-out: Half-Life (converted)
  half-life: 19.1 min
[1]; female, Sprague-Dawley, rat, plasma, iv, 100 mg/kg, female rats, 100 mg/kg, 30-min IV infusion, read-out: AUC
  AUC: 16100 ng·h/mL
[1]; female, Sprague-Dawley, rat, plasma, iv, 100 mg/kg, female rats, 100 mg/kg, 30-min IV infusion, read-out: Half-Life (converted)
  half-life: 17.2 min
[1]; female, rat, plasma, iv, 200 mg/kg, female rats, 200 mg/kg, 30-min IV infusion, read-out: AUC
  AUC: 40600 ng·h/mL
[1]; female, rat, plasma, iv, 200 mg/kg, female rats, 200 mg/kg, 30-min IV infusion, read-out: Half-Life (converted)
  half-life: 23.4 min
[1]; [9]
  AUC: 17000 ng·h/mL
  half-life: 16.1 min
[1]; male, Sprague-Dawley, rat, plasma, iv, 50 mg/kg, male rats, 50 mg/kg, 30-min IV infusion, read-out: AUC
  AUC: 7940 ng·h/mL
[1]; male, Sprague-Dawley, rat, plasma, iv, 50 mg/kg, male rats, 50 mg/kg, 30-min IV infusion, read-out: Half-Life (converted)
  half-life: 20 min
[1]; male, Sprague-Dawley, rat, plasma, iv, 100 mg/kg, male rats, 100 mg/kg, 30-min IV infusion, read-out: AUC
  AUC: 17100 ng·h/mL
[1]; male, Sprague-Dawley, rat, plasma, iv, 100 mg/kg, male rats, 100 mg/kg, 30-min IV infusion, read-out: Half-Life (converted)
  half-life: 16.2 min
[1]; male, Sprague-Dawley, rat, plasma, iv, 200 mg/kg, male rats, 200 mg/kg, 30-min IV infusion, read-out: AUC
  AUC: 37600 ng·h/mL
[1]; male, Sprague-Dawley, rat, plasma, iv, 200 mg/kg, male rats, 200 mg/kg, 30-min IV infusion, read-out: Half-Life (converted)
  half-life: 19.4 min
[1]; [10]
  Cmax: 71100 ng/mL
  Tmax: 41 min
  clearance: 80.7 mL/min/kg
[2]; male Sprague-Dawley rats, single oral dose 100 mg/kg
  time of mean peak plasma concentration (first sampled time point): 15 min
[2]; [11]
  mean peak plasma concentration: 15.8 µg/mL
  time of mean peak plasma concentration (first sampling time point): 0.25 h
[2]; male Sprague-Dawley rats, single oral dose 100 mg/kg, 100 mg/kg
  oral absorption (in words): rapidly and well absorbed
[2]; male rat, PO, 100 mg/kg, composite data, n = 3 per time point
  t1/2: 96 min
[2]; male, Sprague-Dawley, plasma, rat, PO, 100 mg/kg, composite data, n = 3 per time point
  Tmax: 15 min
[2]; male, Sprague-Dawley, rat, plasma, oral, 100 mg/kg, male rat, PO, 100 mg/kg vs 100 mg/kg 30 minute IV infusion, read-out: Oral F (absolute oral bioavailability)
  bioavailability: 77.3%
[2]; [12]
  AUC (total area under the concentration-time curve from zero to infinity): 13.1 μg-
  Cmax: 15.8 μg/m
[2]; rat, plasma, male Sprague-Dawley rats, single oral dose 100 mg/kg, read-out: mean area under the curve (AUC)
  AUC: 13100 ng·h/mL
[3]; 1 mg/kg, n = 3, mean ± S.D.
  Tmax: 1.98 min
  AUC (total area under the concentration-time curve from zero to infinity): 0.221 ± 0.054 μg-
  Cmax: 0.802 ± 0.165 μg/m
[3]; 5 mg/kg, n = 2, mean ± S.D.
  Tmax: 1.98 min
[3]; 20 mg/kg, n = 3, mean ± S.D.
  Tmax: 1.98 min
  AUC (total area under the concentration-time curve from zero to infinity): 3.30 ± 0.36 μg-
  Cmax: 13.5 ± 1.52 μg/m
[3]; 50 mg/kg, n = 3, mean ± S.D.
  Tmax: 1.98 min
  AUC (total area under the concentration-time curve from zero to infinity): 8.47 ± 0.02 μg-
  Cl: 98.5 ± 4.17 mL/min/kg
  Cmax: 35.5 ± 3.01 μg/m
  Vss: 1.67 ± 0.04 L/kg
[3]; 5 mg/kg, n = 2
  AUC (total area under the concentration-time curve from zero to infinity): 0.826 μg-
  Cmax: 3.82 μg/m
